Measured values published in BindingDB's records for doi:10.1016/s0960-894x(01)00776-4 (Wyeth-Ayerst Research, 2002).

Assay: Inhibition of Src-transformed fibroblast cell proliferation

SMILES: COc1cc(Nc2c(C#N)cnc3cc(OC)c(OC)cc23)c(C)cc1Cl
- IC50: 2400 nM
